Patent US12077503B2, “Substituted cyclic amides and their use as herbicides” (FMC CORPORATION, priority 2015, dated 2024)

What was measured:
Assay type in all cases: in vivo
[1] = system: corn (Zea mays); assay: Test G Post-Emergence Protocol; settings: Zea mays, post-emergence, 312 h
Method in brief: (§1)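 Seedlings grown 8 days in soil in a glasshouse (24/16 °C day/night, 14 h light, 65% humidity) were sprayed post-emergence with compound in acetone/water 50:50 plus 0.5% Tween 20 at 15.625, 62.5 or 250 g/ha. Damage was scored after 13 days on a 0–100 scale (100 = total damage).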

[2] = system: velvetleaf (Abutilon theophrasti); assay: Test G Post-Emergence Protocol; settings: Abutilon theophrasti, post-emergence, 312 h
Method in brief: as §1

[3] = system: giant foxtail (Setaria faberi); assay: Test G Post-Emergence Protocol; settings: Setaria faberi, post-emergence, 312 h
Method in brief: as §1

[4] = system: redroot pigweed (Amaranthus retroflexus); assay: Test G Post-Emergence Protocol; settings: Amaranthus retroflexus, post-emergence, 312 h
Method in brief: as §1

[5] = system: barnyardgrass (Echinochloa crus-galli); assay: Test G Post-Emergence Protocol; settings: Echinochloa crus-galli, post-emergence, 312 h
Method in brief: as §1

[6] = system: ivy-leaved morning glory (Ipomoea hederacea); assay: Test G Post-Emergence Protocol; settings: Ipomoea, post-emergence, 312 h
Method in brief: as §1

[7] = system: corn (Zea mays); assay: Test G Pre-Emergence Protocol; settings: Zea mays, pre-emergence, 312 h, evaluated after 13 days
Method in brief: (§2)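 Herbicidal effect was rated 13 days post-application on a scale where 100 equals total damage. Spraying took place the day after sowing, using 15.625, 62.5 or 250 g/ha of compound in a 50:50 acetone/water solution with 0.5% Tween 20.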

[8] = system: velvetleaf (Abutilon theophrasti); assay: Test G Pre-Emergence Protocol; settings: Abutilon theophrasti, pre-emergence, 312 h, evaluated after 13 days
Method in brief: as §2

[9] = system: giant foxtail (Setaria faberi); assay: Test G Pre-Emergence Protocol; settings: Setaria faberi, pre-emergence, 312 h, evaluated after 13 days
Method in brief: as §2

[10] = system: redroot pigweed (Amaranthus retroflexus); assay: Test G Pre-Emergence Protocol; settings: Amaranthus retroflexus, pre-emergence, 312 h, evaluated after 13 days
Method in brief: as §2

[11] = system: barnyardgrass (Echinochloa crus-galli); assay: Test G Pre-Emergence Protocol; settings: Echinochloa crus-galli, pre-emergence, 312 h, evaluated after 13 days
Method in brief: as §2

[12] = system: ivy-leaved morning glory (Ipomoea hederacea); assay: Test G Pre-Emergence Protocol; settings: Ipomoea, pre-emergence, 312 h, evaluated after 13 days
Method in brief: as §2

CN1C[C@@H](c2ccc(C(F)(F)F)cc2)[C@H](C(=O)Nc2c[nH]nc2Cl)C1=O (racemic) [Compound 1633]
0%: plant injury at 15.625 g/ha ([1]; 15.625 g ai/ha, evaluated after 13 days (100=total damage to plant; 0=no damage to plant), read-out: Corn damage rating) | plant injury at 62.5 g/ha ([1]; 62.5 g ai/ha, evaluated after 13 days, read-out: Corn damage rating (100=total damage to plant; 0=no damage to plant)) | plant injury at 250 g/ha ([1]; 250 g ai/ha, evaluated after 13 days, read-out: damage to plant, Corn (100=total damage to plant; 0=no damage to plant)) | pest or weed control at 15.625 g/ha ([2]; 15.625 g ai/ha, evaluated after 13 days (100=total damage to plant; 0=no damage to plant), read-out: Velvetleaf damage rating) | pest or weed control at 62.5 g/ha ([2]; 62.5 g ai/ha, evaluated after 13 days, read-out: Velvetleaf damage rating (100=total damage to plant; 0=no damage to plant)) | pest or weed control at 250 g/ha ([2]; 250 g ai/ha, evaluated after 13 days, read-out: damage to plant, Velvetleaf (100=total damage to plant; 0=no damage to plant)) | pest or weed control at 15.625 g/ha ([3]; 15.625 g ai/ha, evaluated after 13 days (100=total damage to plant; 0=no damage to plant), read-out: Foxtail, Giant damage rating) | pest or weed control at 62.5 g/ha ([3]; 62.5 g ai/ha, evaluated after 13 days, read-out: Foxtail, Giant damage rating (100=total damage to plant; 0=no damage to plant)) | pest or weed control at 250 g/ha ([3]; 250 g ai/ha, evaluated after 13 days, read-out: damage to plant, Foxtail, Giant (100=total damage to plant; 0=no damage to plant)) | pest or weed control at 15.625 g/ha ([4]; 15.625 g ai/ha, evaluated after 13 days (100=total damage to plant; 0=no damage to plant), read-out: Pigweed, Redroot damage rating) | pest or weed control at 62.5 g/ha ([4]; 62.5 g ai/ha, evaluated after 13 days, read-out: Pigweed, Redroot damage rating (100=total damage to plant; 0=no damage to plant)) | pest or weed control at 250 g/ha ([4]; 250 g ai/ha, evaluated after 13 days, read-out: damage to plant, Pigweed, Redroot (100=total damage to plant; 0=no damage to plant)) | pest or weed control at 15.625 g/ha ([5]; 15.625 g ai/ha, evaluated after 13 days (100=total damage to plant; 0=no damage to plant), read-out: Barnyardgrass damage rating) | pest or weed control at 62.5 g/ha ([5]; 62.5 g ai/ha, evaluated after 13 days, read-out: Barnyardgrass damage rating (100=total damage to plant; 0=no damage to plant)) | pest or weed control at 250 g/ha ([5]; 250 g ai/ha, evaluated after 13 days, read-out: damage to plant, Barnyardgrass (100=total damage to plant; 0=no damage to plant)) | pest or weed control at 15.625 g/ha ([6]; 15.625 g ai/ha, evaluated after 13 days (100=total damage to plant; 0=no damage to plant), read-out: Morningglory, Ivy-leaved damage rating) | pest or weed control at 62.5 g/ha ([6]; 62.5 g ai/ha, evaluated after 13 days, read-out: Morningglory, Ivy-leaved damage rating (100=total damage to plant; 0=no damage to plant)) | pest or weed control at 250 g/ha ([6]; 250 g ai/ha, evaluated after 13 days, read-out: damage to plant, Morningglory, Ivy-leaved (100=total damage to plant; 0=no damage to plant)) | plant injury at 15.625 g/ha ([7]; 15.625 g ai/ha, read-out: Corn damage rating (100=total damage to plant; 0=no damage to plant)) | plant injury at 62.5 g/ha ([7]; 62.5 g ai/ha, 100=total damage to plant, 0=no damage to plant, read-out: plant damage rating, Corn) | plant injury at 250 g/ha ([7]; 250 g ai/ha, read-out: Corn damage rating (100=total damage to plant; 0=no damage to plant)) | pest or weed control at 15.625 g/ha ([8]; 15.625 g ai/ha, read-out: Velvetleaf damage rating (100=total damage to plant; 0=no damage to plant)) | pest or weed control at 62.5 g/ha ([8]; 62.5 g ai/ha, 100=total damage to plant, 0=no damage to plant, read-out: plant damage rating, Velvetleaf) | pest or weed control at 250 g/ha ([8]; 250 g ai/ha, read-out: Velvetleaf damage rating (100=total damage to plant; 0=no damage to plant)) | pest or weed control at 15.625 g/ha ([9]; 15.625 g ai/ha, read-out: Foxtail, Giant damage rating (100=total damage to plant; 0=no damage to plant)) | pest or weed control at 62.5 g/ha ([9]; 62.5 g ai/ha, 100=total damage to plant, 0=no damage to plant, read-out: plant damage rating, Foxtail, Giant) | pest or weed control at 250 g/ha ([9]; 250 g ai/ha, read-out: Foxtail, Giant damage rating (100=total damage to plant; 0=no damage to plant)) | pest or weed control at 15.625 g/ha ([10]; 15.625 g ai/ha, read-out: Pigweed, Redroot damage rating (100=total damage to plant; 0=no damage to plant)) | pest or weed control at 62.5 g/ha ([10]; 62.5 g ai/ha, 100=total damage to plant, 0=no damage to plant, read-out: plant damage rating, Pigweed, Redroot) | pest or weed control at 250 g/ha ([10]; 250 g ai/ha, read-out: Pigweed, Redroot damage rating (100=total damage to plant; 0=no damage to plant)) | pest or weed control at 15.625 g/ha ([11]; 15.625 g ai/ha, read-out: Barnyard grass damage rating (100=total damage to plant; 0=no damage to plant)) | pest or weed control at 62.5 g/ha ([11]; 62.5 g ai/ha, 100=total damage to plant, 0=no damage to plant, read-out: plant damage rating, Barnyardgrass) | pest or weed control at 250 g/ha ([11]; 250 g ai/ha, read-out: Barnyardgrass damage rating (100=total damage to plant; 0=no damage to plant)) | pest or weed control at 15.625 g/ha ([12]; 15.625 g ai/ha, read-out: Morning-glory, Ivy-leaved damage rating (100=total damage to plant; 0=no damage to plant)) | pest or weed control at 62.5 g/ha ([12]; 62.5 g ai/ha, 100=total damage to plant, 0=no damage to plant, read-out: plant damage rating, Morningglory, Ivy-leaved) | pest or weed control at 250 g/ha ([12]; 250 g ai/ha, read-out: Morningglory, Ivy-leaved damage rating (100=total damage to plant; 0=no damage to plant))
